Series [1] in a line: physchem. The protocol: Approximate solubilities of Larazotide acetate Form A in different solvents were determined. Aliquots of the test solvent were added to weighed samples of Larazotide. The samples were sonicated to aid in dissolution. Visual inspection was used to determine if a sample had dissolved. The approximate solubility was calculated from the total amount of solvent added.

The conditions of series [2]: 5% to 95% RH sorption/desorption. From the text:
Moisture sorption/desorption data were collected on a VTI SGA-100 Vapor Sorption Analyzer. Sorption and desorption data were collected over a range of 5% to 95% relative humidity (RH) at 10% RH intervals under a nitrogen purge. Samples were not dried prior to analysis. Equilibrium criteria used for analysis were less than 0.0100% weight change in five minutes, with a maximum equilibration time of three hours if the weight criterion was not met. Data were not corrected for the initial moisture content of the samples. NaCl and PVP were used as calibration standards.

The procedure of series [3]:
The stability of the chloride salt was tested at 25° C. without humidity control (in closed bottles). The stability of the acetate salt was determined at 25° C./60% RH.

A short description of series [4]: physchem. To be noted: water. The protocol:
Solubilities of Larazotide acetate and the corresponding chloride salt in water were tested at 20° C. after 14 hours of vigorous stirring in the presence of residual solid. Concentrations of peptide are measured by standardized HPLC.

For series [5] the following is noted: 40 C/75% RH, 1 and 2 months.
Method: An appropriate amount of amorphous larazotide acetate and crystalline larazotide acetate was used for a stability study to evaluate quality parameters (purity, impurities, assay and ID) for these materials under various storage conditions. Data was collected at two time points, namely at 1 month and at 2 months of storage under the conditions tested.
Data was generated for storage of the three larazotide acetate samples stored at 40 C/75% RH. All three samples were analyzed at 1 and 2 months.
[6] abbreviates: 25° C. without humidity control (closed bottles), timepoint 0.
The mark [7] stands for this setting: 25° C. without humidity control (closed bottles), timepoint 1.
The mark [8] stands for this setting: 25° C. without humidity control (closed bottles), timepoint 2.

In brackets after ≈: the same amount, converted by molar mass. Where two headings read alike, the source gives them in different places. Residues, ends and D or L forms follow the SMILES beside them. Where only a bound is given, the exact number is not on record here.

Broadly, the solubility is how much of the substance goes into solution per volume. With `CC(C)C[C@H](NC(=O)[C@@H](NC(=O)CNC(=O)CN)C(C)C)C(=O)N[C@H](C(=O)N[C@@H](CCC(N)=O)C(=O)N1CCC[C@H]1C(=O)NCC(=O)O)C(C)C` [Form A] (H-GGVLVQPG-OH), the solubility in the series “physchem [1]” ((1:1) DCM/MeOH) is less than 3000 µg/mL; in the series “physchem [1]” ((1:1) Water/ACN), less than 3000 µg/mL; in the series “physchem [1]” ((1:1) Water/Dioxane), less than 3000 µg/mL; in “physchem [1]” ((1:1) Water/MeOH) it was less than 3000 µg/mL; in “physchem [1]” (Acetone), less than 4000 µg/mL; in the series “physchem [1]” (Acetonitrile (ACN)), less than 4000 µg/mL. Besides, the solubility in the series “physchem [1]” (Dichloromethane (DCM)), in the series “physchem [1]” (Dimethyl sulfoxide (DMSO)), in “physchem [1]” (Dioxane), in the series “physchem [1]” (Ethanol (EtOH)), in “physchem [1]” (Ethyl acetate (EtOAc)) and in “physchem [1]” (Methanol (MeOH)) was less than 4000 µg/mL throughout. Also, the figures for the solubility in the series “physchem [1]” (Tetrahydrofuran (THF)), in the series “physchem [1]” (Trifluoroethanol (TFE)) and in the series “physchem [1]” (water) were less than 4000 µg/mL, 4000 µg/mL (≈ 5.51 mM) and 8000 µg/mL (≈ 11 mM), respectively. In addition, the “solid form by XRPD following the moisture sorption experiment” value in series [2] is reported as “still Form A”.

Regarding `CC(C)C[C@H](NC(=O)[C@@H](NC(=O)CNC(=O)CN)C(C)C)C(=O)N[C@H](C(=O)N[C@@H](CCC(N)=O)C(=O)N1CCC[C@H]1C(=O)NCC(=O)O)C(C)C` [Larazotide Acetate] (H-GGVLVQPG-OH), the rate of deamidation result in series [3] (25° C./60% RH) is listed as “about 0.05 %/month”. Besides, the “% HPLC Area (purity)” value in series [3] (25° C./60% RH, timepoint 0) was found to be 98.7%; in series [3] (25° C./60% RH, timepoint 1), 98.4%; in series [3] (25° C./60% RH, timepoint 2), 98.2%; in series [3] (25° C./60% RH, timepoint 3), 97.7%; in series [3] (25° C./60% RH, timepoint 6), 96.1%. Moreover, the “Deamidated “Glu” % HPLC area” value in series [3] (25° C./60% RH, timepoint 0) is 0.19%; in series [3] (25° C./60% RH, timepoint 1), 0.22%; in series [3] (25° C./60% RH, timepoint 2), 0.26%; in series [3] (25° C./60% RH, timepoint 3), 0.40%; in series [3] (25° C./60% RH, timepoint 6) it was 0.60%.

On to `CC(C)C[C@H](NC(=O)[C@@H](NC(=O)CNC(=O)CN)C(C)C)C(=O)N[C@H](C(=O)N[C@@H](CCC(N)=O)C(=O)N1CCC[C@H]1C(=O)NCC(=O)O)C(C)C` [Larazotide Chloride] (H-GGVLVQPG-OH), for which the solubility at 14 h in “physchem [4]” was no less than 300000 µg/mL. For the same molecule, in series [3] (25° C. without humidity control (closed bottles)), the rate of deamidation result was “about 1 %/month”. For the same molecule, the “% HPLC Area (purity)” value in series [3] (setting [6]) was 98.4%; in series [3] (setting [7]), 97.8%; in series [3] (setting [8]), 96.1%. Further, the entries for the “Deamidated “Glu” % HPLC area” value in series [3] (setting [6]), in series [3] (setting [7]) and in series [3] (setting [8]) were 1.06%, 1.85% and 3.02%, respectively.

Take `CC(C)C[C@H](NC(=O)[C@@H](NC(=O)CNC(=O)CN)C(C)C)C(=O)N[C@H](C(=O)N[C@@H](CCC(N)=O)C(=O)N1CCC[C@H]1C(=O)NCC(=O)O)C(C)C` [amorphous larazotide acetate] (H-GGVLVQPG-OH): the “overall rate of degradation” value in series [5] is roughly 10 % per month.

The values above are taken from patent US9051349B2, “Larazotide acetate compositions” (Alba Therapeutics Corp., priority 2007, dated 2015).
